Data reported in patent US7223583B2, “Antithrombotic thrombin variants” (Emory University, priority 2001, dated 2007).
Residues, ends and D or L forms follow the SMILES beside them. *: point of attachment. pNA = O=[N+]([O-])c1ccc(N*)cc1

Key:
Assay type in all cases: biochemical
[1] = target: T1, human thrombin, wild-type (WT) (Homo sapiens, UniProt P00734); experiment: Hydrolysis of chromogenic substrates (release of p-NA at 405 nm), Example 3; conditions: 5 mM Tris, 0.1% PEG, 200 mM NaCl, pH 8.0, 25° C.
T1 construct: the B chain of thrombin commences with I1 and extends to E259; made in house
Experimental: Citrated plasma was diluted 1:1 with isotonic saline, and the thrombin analogs were diluted with 0.1 M NaCl, 0.01 M CaCl2, 0.02 M Tris, pH 7.3 prior to testing. 100 μl of thrombin analog was then added to 200 μl of baboon plasma and the clotting time was determined using a fibrometer.
(§1) The chromogenic substrates FPR and LDPR were synthesized by solid phase, purified by HPLC and analyzed by mass spectrometry. Progress curves of the release of p-NA following the hydrolysis of chromogenic substrate were measured at 405 nm as a function of substrate concentration and analyzed to extract the values of kcat/Km and kcat, after proper correction for product inhibition. […] Biotechnol.

[2] = test system: human thrombin, variant E217A; experiment: Hydrolysis of chromogenic substrate (progress curves of the release of p-nitroaniline at 405 nm), Example 4; conditions: E217A thrombin mutant (Gibbs et al.)
Experimental: (§2) All assays were carried out under experimental conditions of 5 mM Tris, 0.1% PEG, 145 mM NaCl, pH 7.4 at 37° C. The chromogenic substrates H-D-Phe-Pro-Arg-p-nitroanilide specific for thrombin and H-D-Asp-Arg-Arg-p-nitroanilide specific for activated protein C were purchased from Midwest Bio-Tech (Carmel, Ind.). The values of kcat/Km and kcat were obtained from the analysis of progress curves of the release of p-nitroaniline (measured at 405 nm) as a function of substrate concentration taking into account product inhibition, when present. The interaction of thrombin with fibrinogen and fibrin was studied in terms of the release of fibrinopeptides A and B as described by Vindigni & Di Cera. Biochemistry 35: 4417-4426 (1996) incorporated herein by reference in its entirety. The interaction of thrombin with PAR-1 was studied from the kinetics of cleavage of a soluble fragment corresponding to the extracellular portion of the receptor, as detailed in Arosio et al. Biochemistry 39: 8095-8101 (2000) incorporated herein by reference in its entirety. The inhibition of thrombin by antithrombin III in the presence of heparin, and the activation of protein C in the presence or absence of rabbit thrombomodulin were carried out and analyzed as described in Dang et al. Nat. Biotechnol. 15: 146-149 (1997).

[3] = target: T2, human thrombin, variant E217A (Homo sapiens, UniProt P00734, E592A); experiment: as above; conditions: E217A; 5 mM Tris, 0.1% PEG, 145 mM NaCl, pH 7.4, 37° C.
T2 construct: the B chain of thrombin commences with I1 and extends to E259
Experimental: as §2

[4] = test system: human thrombin, variant W215A/E217A (WE), SEQ ID NO: 3; experiment: as above; conditions: W215A/E217A (WE) thrombin double mutant
Experimental: (§3) Site-directed mutagenesis of human α-thrombin was carried out in a HPC4-pNUT expression vector as described in Arosio et al. Biochemistry 39: 8095-8101 (2000) and incorporated herein by reference in its entirety, using overlap extension PCR with two mutant oligonucleotides: upstream: 5-GGGCATCGTCTCAXXXGGTGAAGGCTG TG-3(SEQ ID NO: 7); downstream: 5-CACAGCCTTCACCXXXTGAGACGATGCCC-3 (SEQ ID NO: 8) and two flanking oligonucleotide primers, BgIII (upstream): 5-[…]-3 (SEQ ID NO: 9 and; EcoRI (downstream): 5-[…]-3 (SEQ ID NO: 10). For the generation of the double mutant variant W215A/E217A (WE) thrombin, the forward primer 5′-[…]-3′ (SEQ ID NO: 11) and the reverse primer 5′-[…]-3′ (SEQ ID NO: 12) were used. […]
(§4) All assays were carried out under experimental conditions of 5 mM Tris, 0.1% PEG, 145 mM NaCl, pH 7.4 at 37° C. […] The values of kcat/Km and kcat were obtained from the analysis of progress curves of the release of p-nitroaniline (measured at 405 nm) as a function of substrate concentration taking into account product inhibition, when present. […] The inhibition of thrombin by antithrombin III in the presence of heparin, and the activation of protein C in the presence or absence of rabbit thrombomodulin were carried out and analyzed as described in Dang et al. Nat. […]

[5] = target: T3, human thrombin, variant W215A/E217A (WE), SEQ ID NO: 3 (Homo sapiens, UniProt P00734, E592A/W590A); experiment: as above; conditions: W215A/E217A (WE); 5 mM Tris, 0.1% PEG, 145 mM NaCl, pH 7.4, 37° C.
T3 construct: The B chain commences with I1 and extends to E259; made in house; host or cells: baby hamster kidney cells
Experimental: as §3, §4

[6] = target: T4, human thrombin, variant W215A, SEQ ID NO: 1 (Homo sapiens, UniProt P00734, W590A); experiment: Hydrolysis of chromogenic substrates (release of p-NA at 405 nm), Example 3; conditions: 5 mM Tris, 0.1% PEG, 200 mM NaCl, pH 8.0, 25° C.
T4 construct: The B chain commences with I1 and extends to E259; made in house; host or cells: baby hamster kidney cells
Experimental: Site-directed mutagenesis of human α-thrombin was carried out in a HPC4-pNUT expression vector as described in Arosio et al. Biochemistry 39: 8095-8101 (2000) and incorporated herein by reference in its entirety, using overlap extension PCR with two mutant oligonucleotides: upstream: 5-GGGCATCGTCTCAXXXGGTGAAGGCTG TG-3(SEQ ID NO: 7); downstream: 5-CACAGCCTTCACCXXXTGAGACGATGCCC-3 (SEQ ID NO: 8) and two flanking oligonucleotide primers, BgIII (upstream): 5-[…]-3 (SEQ ID NO: 9 and; EcoRI (downstream): 5-[…]-3 (SEQ ID NO: 10). For the generation of the double mutant variant W215A/E217A (WE) thrombin, the forward primer 5′-[…]-3′ (SEQ ID NO: 11) and the reverse primer 5′-[…]-3′ (SEQ ID NO: 12) were used. Expression of the variant thrombins was carried out in baby hamster kidney cells as described in Guinto et al. Proc. Natl. Acad. Sci. U.S.A. 96: 1852-1857 (1999) incorporated herein by reference in its entirety. The enzyme was activated with the prothrombinase complex for about 30 mins. at 37° C. and then purified to homogeneity by monoS FPLC using a linear gradient of 0.05 to 0.5 M NaCl in 5 mM MES (pH 6) at room temperature. Mutants were further checked for incomplete refolding or autolytic digestion by N-terminal amino acid sequencing. Electrospray mass spectrometry yielded molecular weights consistent with the mutations introduced and indicated identical glycosylation in wild-type and mutant constructs.
as §1, with “All assays were carried out under experimental conditions of 5 mM Tris, 0.1% PEG, 145 mM NaCl, pH 7.4 at 37° C., unless otherwise specified. The” for “The”, “Biotechnol. 15: 146-149 (1997) and incorporated herein by reference in its entirety.” for “Biotechnol.”

[7] = target: T1, human thrombin, wild-type (WT); experiment: Hydrolysis of chromogenic substrate (progress curves of the release of p-nitroaniline at 405 nm), Example 4; conditions: 5 mM Tris, 0.1% PEG, 145 mM NaCl, pH 7.4, 37° C.
Description: WT, W215A and WE variant thrombins were expressed, purified, and characterized in detail as described by Cantwell & Di Cera. J. Biol. Chem. 275: 39827-39830 (2000), incorporated herein by reference in its entirety. WE was stored in aliquots frozen until used in the thrombosis or coagulation experiments. To confirm that injection of variant thrombin WE would be at least as safe as injection of WT in baboons, the procoagulant activities of the two thrombins were compared in baboon plasma prepared by pooling citrated plasma samples from five animals. Citrated plasma was diluted 1:1 with isotonic saline, and the thrombin analogs were diluted with 0.1 M NaCl, 0.01 M CaCl2, 0.02 M Tris, pH 7.3 prior to testing. 100 μl of thrombin analog was then added to 200 μl of baboon plasma and the clotting time was determined using a fibrometer. […]
as §4

[8] = kcat could not be estimated due to the very high Km

Row | kcat (FPR) [1] | kcat/Km (FPR) [1] | drop of kcat/Km for the hydrolysis of H-D-Phe-Pro-Arg-p-nitroanilide [2] | kcat/Km (H-D-Phe-Pro-Arg-p-nitroanilide) [3] | kcat/Km (H-D-Phe-Pro-Arg-p-nitroanilide) [5] | kcat (FPR) [6] | kcat/Km (FPR) [6] | kcat/Km (H-D-Phe-Pro-Arg-p-nitroanilide) [7] | SMILES | cleavage of H-D-Phe-Pro-Arg-p-nitroanilide compromised [4] | kcat/Km (LDPR) [1, 8] | kcat/Km (LDPR) [6, 8]
1 | 56 ± 3 s⁻¹ | 8.8e+07 ± 4e+06 M⁻¹ s⁻¹ | over 25 fold | 3.8e+06 ± 300000 M⁻¹ s⁻¹ | 2800 ± 100 M⁻¹ s⁻¹ | 43 ± 2 s⁻¹ | 910000 ± 10000 M⁻¹ s⁻¹ | 9.7e+07 ± 5e+06 M⁻¹ s⁻¹ | NC(N)=NCCC[C@H](NC(=O)[C@@H]1CCCN1C(=O)[C@H](N)Cc1ccccc1)C(=O)Nc1ccc([N+](=O)[O-])cc1 [FPR, H-D-Phe-Pro-Arg-p-nitroanilide] | over 30,000 fold | – | –
2 | – | – | – | – | – | – | – | – | CC(C)C[C@H](N)C(=O)N[C@@H](CC(=O)O)C(=O)N1CCC[C@H]1C(=O)N[C@@H](CCCN=C(N)N)C(=O)Nc1ccc([N+](=O)[O-])cc1 [LDPR, H-L-Leu-Asp-Pro-Arg-p-nitroanilide] (H-LDPR-pNA) | – | 4.7e+06 ± 900000 M⁻¹ s⁻¹ | 25000 ± 1000 M⁻¹ s⁻¹
